Entries after “also recorded” stand apart in the source; their conditions may differ. Where a name gives a salt, the structure may show the parent alone.
Legend:
Format in all cases: in vivo
[1] = tested on: transgenic mouse (MMTV-Wnt-1) spontaneous breast cancer; assay: Antitumor effect in serial transplantation model of transgenic mouse (MMTV-Wnt-1) spontaneous breast cancer, C57BL/6J mice
Procedure: Spontaneous breast cancer of a transgenic mouse (MMTV-Wnt-1, The Jackson Laboratory) caused to locally express Wnt-1 in mammary gland epithelial cells was collected, transplanted in a mouse of background strain (C57BL/6J, Charles River Laboratories Japan, Inc.) by using a trocar, and passaged. The tumor thus transplanted and passaged was excised when becoming approximately 1.5 g, and prepared into approximately 30 mg of a fragment, which was subcutaneously transplanted to the sides of the bodies of five mice (C57BL/6J) each of a control group, an E7386 12.5, 25 or 50 mg/kg alone administration group, a lenvatinib mesylate 10 mg/kg alone administration group, and a combined administration group of 12.5, 25 or 50 mg/kg E7386 and 10 mg/kg lenvatinib mesylate. After confirmation of engraftment of the tumor, E7386 (12.5, 25 or 50 mg/kg, b.d.s., 14 days, oral administration) and lenvatinib mesylate (10 mg/kg, q.d., 14 days, oral administration) were administered alone or in combination to the alone administration group or the combined administration group. For the administration, E7386 was dissolved in 0.1 mol/L hydrochloric acid, and lenvatinib mesylate was dissolved in 3 mmol/L hydrochloric acid. 0.1 mol/L hydrochloric acid (b.d.s., 14 days) was administered to the control group.
(§1) When the start day of administration was defined as day 1, the major axis and minor axis of tumor developed in each mouse were then measured at day 4, day 8, day 11, and day 15 by using Digimatic Caliper (Mitutoyo Corp.).
The tumor volume and the relative tumor volume (RTV) were calculated according to the following expressions. Tumor volume (mm^3)=Tumor major axis (mm)×Tumor minor axis^2 (mm)/2 Relative tumor volume (RTV)=Tumor volume at the measurement day/Tumor volume at the start day of administration

[2] = tested on: Human breast cancer MDA-MB-231 cells; assay: Antitumor effect in human breast cancer MDA-MB-231 transplantation model, nude mice
Procedure: Human breast cancer MDA-MB-231 cells (ATCC) were cultured by using RPMI1640 medium (Sigma-Aldrich Co. LLC) containing 10% FBS in a 5% CO2 incubator under conditions of 37° C. When the cells became an approximately 80% confluent state, the cells were recovered by using trypsin-EDTA. A suspension was prepared by adding Hank's balanced salt solution containing 50% Matrigel to the cells so as to be 10.0×10^7 cells/mL. 0.1 mL of the obtained cell suspension was subcutaneously transplanted to the sides of the bodies of five nude mice (CAnN.Cg-Foxn1^nu/CrlCrlj, Charles River Laboratories Japan, Inc.) each of a control group, an E7386 25 mg/kg alone administration group, a lenvatinib mesylate 10 mg/kg alone administration group, and a combined administration group of 25 mg/kg E7386 and 10 mg/kg lenvatinib mesylate. From 6 days after the transplantation, E7386 (25 mg/kg, b.d.s., 10 days, oral administration) and lenvatinib mesylate (10 mg/kg, q.d., 10 days, oral administration) were administered alone or in combination to the alone administration group or the combined administration group. For the administration, E7386 was dissolved in 0.1 mol/L hydrochloric acid, and lenvatinib mesylate was dissolved in 3 mmol/L hydrochloric acid. Any drug was not administered to the control group.
When the start day of administration was defined as day 1, the major axis and minor axis of tumor developed in each mouse were then measured at day 4, day 7, and day 10 by using Digimatic Caliper (Mitutoyo Corp.).
(§2) The tumor volume and the relative tumor volume (RTV) were calculated according to the following expressions. Tumor volume (mm^3)=Tumor major axis (mm)×Tumor minor axis^2 (mm^2)/2 Relative tumor volume (RTV)=Tumor volume at the measurement day/Tumor volume at the start day of administration

[3] = tested on: human anaplastic thyroid cancer cell line HTC/C3; assay: Antitumor effect in human anaplastic thyroid cancer cell line HTC/C3 transplantation model, nude mice
Procedure: A human anaplastic thyroid cancer cell line HTC/C3 (JCBR Cell Bank) was cultured by using D-MEM High Glucose medium (Wako Pure Chemical Industries, Ltd.) containing 10% FBS in a 5% CO2 incubator under conditions of 37° C. When the cells became an approximately 80% confluent state, the cells were recovered by using trypsin-EDTA. A suspension was prepared by adding Hank's balanced salt solution containing 50% Matrigel to the cells so as to be 1.0×10^7 cells/mL. 0.1 mL of the obtained cell suspension was subcutaneously transplanted to the sides of the bodies of five nude mice (CAnN.Cg-Foxn1^nu/CrlCrlj, Charles River Laboratories Japan, Inc.) each of a control group, an E7386 12.5, 25 or 50 mg/kg alone administration group, a lenvatinib mesylate 10 mg/kg alone administration group, and a combined administration group of 12.5, 25 or 50 mg/kg E7386 and 10 mg/kg lenvatinib mesylate. From 11 days after the transplantation, E7386 (12.5, 25, or 50 mg/kg, b.d.s., 14 days, oral administration) and lenvatinib mesylate (10 mg/kg, q.d., 14 days, oral administration) were administered alone or in combination to the alone administration group or the combined administration group. For the administration, E7386 was dissolved in 0.1 mol/L hydrochloric acid, and lenvatinib mesylate was dissolved in 3 mmol/L hydrochloric acid. 0.1 mol/L hydrochloric acid (b.d.s., 14 days) was administered to the control group.
as §1, §2

[4] = tested on: Human hepatocellular carcinoma line HepG2 cells; assay: Tumor vessel suppressive effect (CD31/α-SMA co-staining, MVD and PCI) in human hepatocellular carcinoma HepG2 subcutaneous transplantation model, nude mice; conditions: FIG. 22; lenvatinib mesylate 10 mg/kg q.d. alone, 14 days oral; vs control group
Procedure: For the administration, E7386 was dissolved in 0.1 mol/L hydrochloric acid, and lenvatinib mesylate was dissolved in 3 mmol/L hydrochloric acid. Any drug was not administered to the control group.

[5] = Day 4, lenvatinib mesylate 10 mg/kg q.d. oral alone
[6] = Day 8, lenvatinib mesylate 10 mg/kg q.d. oral alone
[7] = Day 11, lenvatinib mesylate 10 mg/kg q.d. oral alone
[8] = Day 15, lenvatinib mesylate 10 mg/kg q.d. oral alone
[9] = Day 4, E7386 12.5 mg/kg b.d.s. oral alone
[10] = Day 4, E7386 25 mg/kg b.d.s. oral alone
[11] = Day 4, E7386 50 mg/kg b.d.s. oral alone
[12] = Day 8, E7386 12.5 mg/kg b.d.s. oral alone
[13] = Day 8, E7386 25 mg/kg b.d.s. oral alone
[14] = Day 8, E7386 50 mg/kg b.d.s. oral alone
[15] = Day 11, E7386 12.5 mg/kg b.d.s. oral alone
[16] = Day 11, E7386 25 mg/kg b.d.s. oral alone
[17] = Day 11, E7386 50 mg/kg b.d.s. oral alone
[18] = Day 15, E7386 12.5 mg/kg b.d.s. oral alone
[19] = Day 15, E7386 25 mg/kg b.d.s. oral alone
[20] = Day 15, E7386 50 mg/kg b.d.s. oral alone

COc1cc2nccc(Oc3ccc(NC(=O)NC4CC4)c(Cl)c3)c2cc1C(N)=O [Lenvatinib mesylate, 4-(3-chloro-4-(cyclopropylaminocarbonyl)aminophenoxy)-7-methoxy-6-quinolinecarboxamide, reference compound]
Relative tumor volume (RTV), mean±SD [1, 5]: 1.03 ± 0.13
Relative tumor volume (RTV), mean±SD [1, 6]: 0.87 ± 0.13
Relative tumor volume (RTV), mean±SD [1, 7]: 0.98 ± 0.21
Relative tumor volume (RTV), mean±SD [1, 8]: 1.05 ± 0.25
Relative tumor volume (RTV), mean±SD [2, 5]: 2.01 ± 0.60
Relative tumor volume (RTV), mean±SD ([2]; Day 7, lenvatinib mesylate 10 mg/kg q.d. oral alone): 2.41 ± 0.60
Relative tumor volume (RTV), mean±SD ([2]; Day 10, lenvatinib mesylate 10 mg/kg q.d. oral alone): 2.67 ± 1.23
Relative tumor volume (RTV), mean±SD [3, 5]: 1.71 ± 0.10
Relative tumor volume (RTV), mean±SD [3, 6]: 3.57 ± 0.54
Relative tumor volume (RTV), mean±SD [3, 7]: 5.15 ± 1.07
Relative tumor volume (RTV), mean±SD [3, 8]: 6.23 ± 1.71
PCI (pericyte coverage index) (in words) [4]: markedly increased; also recorded: statistically significantly increased pericyte coverage as compared with the control group

C=CCN1CC(=O)N2[C@@H](Cc3ccc(O)cc3F)C(=O)N(Cc3cccc(N4CC(N5CCN(CC)CC5)C4)n3)C[C@@H]2N1C(=O)NCc1ccccc1 [E7386, (6S,9aS)—N-Benzyl-8-({6-[3-(4-ethylpiperazin-1-yl)azetidin-1-yl]pyridin-2-yl}methyl)-6-(2-fluoro-4-hydroxybenzyl)-4,7-dioxo-2-(prop-2-en-1-yl)hexahydro-2H-pyrazino[2,1-c][1,2,4]triazine-1(6H)-carboxamide]
Relative tumor volume (RTV), mean±SD [1, 9]: 1.34 ± 0.25
Relative tumor volume (RTV), mean±SD [1, 10]: 1.26 ± 0.28
Relative tumor volume (RTV), mean±SD [1, 11]: 0.93 ± 0.23
Relative tumor volume (RTV), mean±SD [1, 12]: 1.20 ± 0.40
Relative tumor volume (RTV), mean±SD [1, 13]: 1.56 ± 0.48
Relative tumor volume (RTV), mean±SD [1, 14]: 1.05 ± 0.26
Relative tumor volume (RTV), mean±SD [1, 15]: 1.70 ± 0.67
Relative tumor volume (RTV), mean±SD [1, 16]: 2.40 ± 0.22
Relative tumor volume (RTV), mean±SD [1, 17]: 1.34 ± 0.35
Relative tumor volume (RTV), mean±SD [1, 18]: 2.12 ± 0.65
Relative tumor volume (RTV), mean±SD [1, 19]: 3.69 ± 0.92
Relative tumor volume (RTV), mean±SD [1, 20]: 1.59 ± 1.03
Relative tumor volume (RTV), mean±SD [2, 10]: 2.34 ± 0.11
Relative tumor volume (RTV), mean±SD ([2]; Day 7, E7386 25 mg/kg b.d.s. oral alone): 3.19 ± 0.38
Relative tumor volume (RTV), mean±SD ([2]; Day 10, E7386 25 mg/kg b.d.s. oral alone): 4.49 ± 0.51
Relative tumor volume (RTV), mean±SD [3, 9]: 1.68 ± 0.13
Relative tumor volume (RTV), mean±SD [3, 10]: 1.72 ± 0.10
Relative tumor volume (RTV), mean±SD [3, 11]: 1.74 ± 0.09
Relative tumor volume (RTV), mean±SD [3, 12]: 4.02 ± 0.40
Relative tumor volume (RTV), mean±SD [3, 13]: 3.99 ± 0.62
Relative tumor volume (RTV), mean±SD [3, 14]: 4.00 ± 0.66
Relative tumor volume (RTV), mean±SD [3, 15]: 6.27 ± 0.93
Relative tumor volume (RTV), mean±SD [3, 16]: 6.44 ± 1.09
Relative tumor volume (RTV), mean±SD [3, 17]: 5.85 ± 1.42
Relative tumor volume (RTV), mean±SD [3, 18]: 8.58 ± 2.48
Relative tumor volume (RTV), mean±SD [3, 19]: 8.81 ± 2.14
Relative tumor volume (RTV), mean±SD [3, 20]: 7.83 ± 2.28

Reference: patent US12303505B2, “Tumor-treating pharmaceutical composition” (Eisai R&D Management Co., Ltd., priority 2017, dated 2025)
